Measured values taken from patent US6727285B1, “Use of D-arginine and/or L-arginine to protect the amino groups of biological substances from damage, inactivation, or modification by toxic carbonyls and/or dicarbonyls” (priority 1995, dated 2004).
Read-outs that look alike come from different tables or passages of the source.

What was measured:
[1] = system: New Zealand White rabbits; conditions: arginine HCL oral 30 mg/kg/day or i.v. 10 mg/kg/day, methylglyoxal i.v. daily
Procedure: (§1) Group 2: The rabbits of group 2 are fed a diet supplemented with oral D-arginine HCL 30 mg/kg/day (or an appropriate dose which can range from, for example, but not limited to, 1 mg/kg/day to 100 mg/kg/day).
(§2) Group 3: The rabbits of group 3 are fed a diet supplemented with oral L-arginine HCL 30 mg/kg/day (or an appropriate dose which can range from, for example, but not limited to, 1 mg/kg/day to 100 mg/kg/day).
(§3) Group 4: The rabbits of group 4 receive L-arginine HCL by ear vein in 10 cc normal saline at a dose of 10 mg/kg/day (or an appropriate dose which can range from, for example, but not limited to, 1 mg/kg/day to 100 mg/kg/day) for the duration of the experiment.
(§4) Group 5: The rabbits of group 5 receive D-arginine HCL by ear vein in 10 cc normal saline at a dose of 10 mg/kg/day (or an appropriate dose which can range from, for example, but not limited to, 1 mg/kg/day to 100 mg/kg/day) for the duration of the experiment.

[2] = system: non-diabetic animal model; test: Non-diabetic rabbits challenged with radiolabeled methylglyoxal (Example 7); conditions: otherwise identical to Example 5
bovine serum albumin [3] = test: Blocking of methylglyoxal or glyoxal cross-linking (gel formation) of albumin, inventor's tests; type: biochemical; conditions: for blocking of the cross-linking of albumin by methylglyoxal or glyoxal: arginines: hydrochloride salts and free base forms; for gelatin formation of bovine serum albumin when methylglyoxal is added: acidic solution, room temperature, 2 cc BSA pretreated with one millimole; for gelatin formation of bovine serum albumin when methylglyoxal is added / conversion of bovine serum albumin from liquid to gelatin by methylglyoxal: one millimole methylglyoxal; for conversion of bovine serum albumin from liquid to gelatin by methylglyoxal: pH 6.4 to 7.4, room temperature, 75, 80, 83, 90 and 98.6 degrees Fahrenheit, 2 cc 30% BSA pretreated with one millimole; for methylglyoxal-induced gel formation of liquid bovine serum albumin: pretreatment, free base or hydrochloride form
bovine serum albumin [4] = test: Protectant pretreatment against methylglyoxal gel formation of bovine serum albumin, pH adjusted by titration NaOH/HCL (Example 3, Table 6); type: biochemical
Procedure: As described in TABLE #6,2 ml. bovine serum albumin 30% solution was added to each of eight 7 ml. glass test tubes. One millimole of guanidine was added to tube #1; no protectant was added to tubes #2, #3, and #4. […] Into test tube #6 was added 1 millimole of L-arginine hydrochloride, the pH was adjusted to 7.40 by micro-drop titration. Into test tube #7 was added 1 millimole of L-arginine hydrochloride, not pH adjusted. Into test tube #8 was added 1 millimole of D-arginine hydrochloride, not pH adjusted. […] After 3 hours the heating unit was turned off reducing the temperature to room temperature, 75 degrees Fahrenheit, to prevent the drying out of the sample and the reaction was allowed to proceed overnight.

[5] = system: insulin dependent diabetic; test: L-arginine hydrochloride in a diabetic patient with painful feet (Example 9); type: in vivo, human; conditions: 700 mg twice a day (1,400 mg per day), 120kg, painful feet secondary to vasculopathy and/or neuropathy, within 6 weeks
bovine serum albumin [6] = biological target: T1, bovine serum albumin (Bos taurus, UniProt P02769); type: biochemical; conditions: for gel formation of albumin samples: pretreated with 1 millimole, 2 ml 30% BSA, 1 millimole methylglyoxal, HEPES buffered, 98.6 F., 217 rpm
T1 construct: HEPES salt, HEPES acid, and bovine serum albumin was obtained from Sigma; purchased Sigma
T1 sequence (P02769 25-607): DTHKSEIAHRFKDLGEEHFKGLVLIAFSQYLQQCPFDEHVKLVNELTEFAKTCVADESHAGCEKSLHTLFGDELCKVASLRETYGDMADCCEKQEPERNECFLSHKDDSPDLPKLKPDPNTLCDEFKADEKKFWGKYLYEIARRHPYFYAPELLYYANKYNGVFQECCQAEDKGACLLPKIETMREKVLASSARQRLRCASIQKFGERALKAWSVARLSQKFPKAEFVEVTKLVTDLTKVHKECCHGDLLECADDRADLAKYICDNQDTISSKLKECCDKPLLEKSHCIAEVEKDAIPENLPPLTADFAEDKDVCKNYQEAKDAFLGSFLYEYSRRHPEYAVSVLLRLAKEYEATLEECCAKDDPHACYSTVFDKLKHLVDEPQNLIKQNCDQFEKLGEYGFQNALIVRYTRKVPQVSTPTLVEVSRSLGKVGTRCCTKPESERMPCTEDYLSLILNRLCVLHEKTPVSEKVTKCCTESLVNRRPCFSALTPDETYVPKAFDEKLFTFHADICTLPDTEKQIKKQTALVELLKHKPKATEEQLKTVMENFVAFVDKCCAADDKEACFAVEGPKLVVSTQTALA
Procedure: The magnetic stirrer was set to 217 rpm. The pH was checked at five minutes.
The pH was constantly monitored as were the color and fluid characteristics of the mixture. […] The end-point was recorded when a visible non-flowing gel formed in the tube and could not be caused to flow when the tube was inverted at 40 degrees below the horizontal for two minutes.

bovine serum albumin [7] = test: Protectant pretreatment against methylglyoxal cross-linking of HEPES-buffered bovine serum albumin (Example 2, Table 5); type: biochemical; conditions: 2 ml 30% BSA, 1 millimole protectant, 1 millimole methylglyoxal
Procedure: As described in TABLE #5, 2 cc of 30% bovine serum albumin was added by glass pipette to each of 6 glass 7 ml. test tubes numbered 1 through 6. 1 millimole of L-arginine hydrochloride in 0.5 ml. of 6 molar HEPES buffer was added to tube #1. 1 millimole of L-arginine hydrochloride in 0.4 ml. of 6 molar HEPES buffer was added to tube #2. 1 millimole D-arginine hydrochloride in 0.5 ml. of 6 molar HEPES buffer was added to tube #3. 1 millimole D-arginine hydrochloride in 0.4 ml. of 6 molar HEPES buffer was added to tube #4. 0.5 ml. of 6 molar HEPES buffer was added to tube #5. 1 millimole of glycocyamine in 0.5 ml. of 6 molar HEPES buffer was added to tube #6.
The pH was measured periodically and observations were made and recorded. At three hours the heating unit was reduced to room temperature, 75 degrees Fahrenheit, to prevent drying and the reaction allowed to proceed.

ovalbumin = biological target: T2, ovalbumin (Gallus gallus, UniProt P01012); test: Reaction of methylglyoxal with ovalbumin (egg albumin); type: biochemical
T2 sequence (P01012 1-386): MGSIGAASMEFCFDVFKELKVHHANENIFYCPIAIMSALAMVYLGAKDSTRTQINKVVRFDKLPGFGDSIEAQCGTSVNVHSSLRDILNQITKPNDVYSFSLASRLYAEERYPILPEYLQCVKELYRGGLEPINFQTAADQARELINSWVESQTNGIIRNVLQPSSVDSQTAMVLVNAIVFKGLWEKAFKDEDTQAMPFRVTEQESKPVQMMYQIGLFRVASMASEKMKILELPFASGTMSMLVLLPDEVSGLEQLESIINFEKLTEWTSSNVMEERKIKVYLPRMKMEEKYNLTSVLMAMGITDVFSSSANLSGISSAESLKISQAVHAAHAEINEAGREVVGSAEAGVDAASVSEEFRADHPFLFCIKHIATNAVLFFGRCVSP

bovine serum albumin [8] = biological target: T1, bovine serum albumin; type: biochemical
Procedure: As described in TABLE #4, 2 cc of 30% bovine serum albumin (BSA) was added by glass pipette (Kimax 1/100) to each of three glass 7 ml. test tubes numbered 1, 2, and 3. 0.4 ml. of 6 molar HEPES buffer was added to tube #1 by glass pipette. 0.5 ml. of 6 molar HEPES buffer was added to test tube #2. 0.3 ml. of 6 molar HEPES buffer was added to tube #3.

[9] = system: New Zealand White rabbits made diabetic by streptozotocin; test: Streptozotocin-diabetic rabbits given i.v. radiolabeled glucose, kidney examination (Example 6); conditions: arginine HCL oral 30 mg/kg/day or i.v. 10 mg/kg/day, radiolabeled glucose i.v. daily
Procedure: as §1, §2, §3, §4
(§5) At the end of the experiment, all animals are sacrificed and their kidneys removed, sectioned and examined for gross and microscopic changes, as well as for accumulation of the radiolabel, with special attention to the glomerular basement membrane.

[10] = system: New Zealand White rabbits made diabetic by streptozotocin; conditions: arginine HCL oral 30 mg/kg/day or i.v. 10 mg/kg/day, radiolabeled methylglyoxal i.v. daily
Procedure: as §1, §2, §3, §4, §5

[11] = 2 ml BSA + 1 millimole protectant not pH adjusted, 0.18 ml of 40% pH-adjusted methylglyoxal
[12] = 2 ml BSA + 1 millimole protectant, pH adjusted to 7.40-7.46 with NaOH/HCL, 0.18 ml of 40% pH-adjusted methylglyoxal

With N=C(N)NCCC[C@H](N)C(=O)O [arginine, 2-amino-5-guanidovaleric acid] the “level of methylglyoxal in the blood” value [1] was “reduces” and the “changes caused by methylglyoxal” value [2] was “blocks”.

For N=C(N)N [guanidine, reference compound], the “blocking of the cross-linking of albumin by methylglyoxal or glyoxal” value (“blocking of the cross-linking of albumin” below) (bovine serum albumin [3]) was “do not block” and the “FINAL FORM” value (bovine serum albumin [4]; 2 ml BSA, 1 millimole protectant added to BSA, 1 millimole (0.18 ml of 40%) methylglyoxal pH adjusted to 7.40) was “GEL”.

With Cl.N=C(N)NCCC[C@H](N)C(=O)O [L-arginine Hydrochloride, L-arginine hydrochloride] the “pain in both the feet and hands” value [5] was “marked reduction in pain”, the “gel formation of albumin samples” value (bovine serum albumin [6]) was “did not gel at any time and remained liquid” and the “FINAL FORM” value (bovine serum albumin [7]; 6 m HEPES 0.4 ml) was “LIQUID”. For the same compound, the “FINAL FORM” value (bovine serum albumin [7]; 6 m HEPES 0.5 cc/ml) was “LIQUID”, the Observation overnight (bovine serum albumin [4]; [11]) was “became viscous overnight;” and the “FINAL FORM” value (bovine serum albumin [4]; [12]) was “LIQUID”. The Observation overnight (bovine serum albumin [4]; [12]) was “later; remained liquid overnight;”.

In the case of CC(=O)C=O [methylglyoxal], the “conversion of liquid ovalbumin” value (ovalbumin; 0.2 cc of 40% methylglyoxal, two cc of liquid ovalbumin, within a matter of hours, 1976 unpublished works) is reported as “from liquid to solid gelatin”, the “product formed with bovine serum albumin” value (bovine serum albumin [6]; pH 6.4 to 7.4, buffered and unbuffered systems) is reported as “solid gelatin” and the “FINAL FORM” value (bovine serum albumin [8]; pH 7.35) is reported as “GEL”. For the same compound, the “time after mixing until firm yellow gelatin formed” value (bovine serum albumin [8]; sample 1: 2 ml 30% BSA + 0.4 cc 6 m HEPES (pH 7.40), 1 millimole methylglyoxal (0.18 ml of 40%, pH not adjusted), no protectant, 98.6° F.) was under 5 minutes after mixing and the “time until sudden gelatin formation” value (bovine serum albumin [8]; sample 3: 2 ml 30% BSA + 0.3 cc 6 m HEPES (pH 7.35), 0.20 ml of 40% methylglyoxal buffered to 7.36, counted from the 5-minute pH reading ('33 minutes later')) was “pH 7.07 at 5 minutes; 33”.

In the case of N[C@@H](CSSC[C@H](N)C(=O)O)C(=O)O [cystine, reference compound], the “blocking of the cross-linking of albumin” value (bovine serum albumin [3]) is reported as “do not block”.

N=C(N)NCC(=O)O [glycocyamine, reference compound] was tested, and the “blocking of the cross-linking of albumin” value (bovine serum albumin [3]) was “do not block”.

For N=C(N)NCCC[C@@H](N)C(=O)O [D-arginine], the “binding of methylglyoxal to egg albumin” value (ovalbumin) was “capable of blocking the binding”, the “accumulation of radiolabeled glucose metabolites in the kidneys compared with the control” value [9] was “reduced or absent” and the “gross and microscopic changes in the kidney compared to the control” value (“gross and microscopic changes” for short) [9] was “reduced or absent”. For the same compound, the “binding of methylglyoxal to bovine serum albumin” value (bovine serum albumin [3]) was “capable of blocking the binding”, the “gelatin formation of bovine serum albumin when methylglyoxal is added” value (bovine serum albumin [3]) was “prevent gelatin formation” and the “blocking of the cross-linking of albumin” value (bovine serum albumin [3]) was “worked consistently”. The “conversion of bovine serum albumin from liquid to gelatin by methylglyoxal” value (bovine serum albumin [3]) was “the albumin remains liquid”, the “methylglyoxal-induced gel formation of liquid bovine serum albumin” value (bovine serum albumin [3]) was “block methylglyoxal-induced gel formation” and the “accumulation of radiolabeled methylglyoxal in the kidneys compared with the control” value [10] was “reduced or absent”. The “gross and microscopic changes” value [10] was “reduced or absent”.

For N/N=C(\N)NN [diaminoguanidine, reference compound], the “blocking of the cross-linking of albumin” value (bovine serum albumin [3]) was “do not block”.

NC(=O)NCCC[C@H](N)C(=O)O [citrulline, reference compound] was tested, and the “blocking of the cross-linking of albumin” value (bovine serum albumin [3]) was “do not block”.

In the case of N=C(N)NN [aminoguanidine, reference compound], the “blocking of the cross-linking of albumin” value (bovine serum albumin [3]) is reported as “do not block”.

For N=C(N)NCCC[C@H](N)C(=O)O [L-arginine], the “binding of methylglyoxal to egg albumin” value (ovalbumin) was “capable of blocking the binding”, the “accumulation of radiolabeled glucose metabolites in the kidneys compared with the control” value [9] was “reduced or absent” and the “gross and microscopic changes” value [9] was “reduced or absent”. The “binding of methylglyoxal to bovine serum albumin” value (bovine serum albumin [3]) was “capable of blocking the binding”, the “gelatin formation of bovine serum albumin when methylglyoxal is added” value (bovine serum albumin [3]) was “prevent gelatin formation” and the “blocking of the cross-linking of albumin” value (bovine serum albumin [3]) was “worked consistently”. For the same compound, the “conversion of bovine serum albumin from liquid to gelatin by methylglyoxal” value (bovine serum albumin [3]) was “the albumin remains liquid”, the “methylglyoxal-induced gel formation of liquid bovine serum albumin” value (bovine serum albumin [3]) was “block methylglyoxal-induced gel formation” and the “accumulation of radiolabeled methylglyoxal in the kidneys compared with the control” value [10] was “reduced or absent”. The “gross and microscopic changes” value [10] was “reduced or absent”.

NC(N)=O [urea, reference compound] was tested, and the “blocking of the cross-linking of albumin” value (bovine serum albumin [3]) was “do not block”.

NCCS [cystieamine, reference compound] was tested, and the “blocking of the cross-linking of albumin” value (bovine serum albumin [3]) was “do not block”.

Cl.N=C(N)NCCC[C@@H](N)C(=O)O [D-arginine Hydrochloride, D-arginine hydrochloride] was tested, and the “gel formation of albumin samples” value (bovine serum albumin [6]) was “did not gel at any time and remained liquid”, the “FINAL FORM” value (bovine serum albumin [7]; 6 m HEPES 0.4 ml) was “LIQUID” and the “FINAL FORM” value (bovine serum albumin [7]; 6 m HEPES 0.5 cc/ml) was “LIQUID”. The “FINAL FORM” value (bovine serum albumin [4]; [11]) was “LIQUID”, the Observation overnight (bovine serum albumin [4]; [11]) was “later; remained liquid overnight;” and the “FINAL FORM” value (bovine serum albumin [4]; [12]) was “LIQUID”. The “Observation at 1 hr. 5 min.” value (bovine serum albumin [4]; [12]) was “brownish, yellow liquid,” and the Observation overnight (bovine serum albumin [4]; [12]) was “Remained liquid”.
